Measurements: PMC3608651, “A Broad Profile of Co-Dominant Epitopes Shapes the Peripheral Mycobacterium tuberculosis Specific CD8+ T-Cell Immune Response in South African Patients with Active Tuberculosis” (PLoS ONE, 2013)
Like-named read-outs stand apart in the source and are kept apart here.

Legend:
Assay type in all cases: binding
[1] = molecular target: T1, HLA-A*30:02 (Homo sapiens, UniProt P04439, D101N/D140H/D185E/E176R/F33S/G80R/H175R/K168Q/Q94H/R138E/R41S/V100E); conditions: duplicated experiments, positive binder >40%
[2] = molecular target: T2, HLA-A*24:02 (Homo sapiens, UniProt P04439, D101N/D140Y/D185E/E176V/E190D/F33S/G103R/G107R/I119L/I121M/I306V/K335N/L105A/L180Q/L300P/N151K/N90K/Q86E/Q94H/R106L/R138H/R89G/T104I/T345S/V100E/W191G/Y123F); conditions: duplicated experiments, positive binder >40%
[3] = molecular target: T2, HLA-A*24:02
[4] = molecular target: T2, HLA-A*24:02; conditions: time points 0-8 h
[5] = molecular target: T1, HLA-A*30:02; conditions: time points 0-8 h
[6] = molecular target: T1, HLA-A*30:02
[7] = molecular target: HLA-A*02:01 (Homo sapiens, UniProt P04439, D140Y/D185E/D98H/E176V/E277Q/G131W/G231S/I119V/I121R/I166T/I218V/L300P/L318F/N151K/N90K/P208A/P217A/Q86G/Q94H/R138H/R169H/T345S)
[8] = molecular target: HLA-A*68:01 (Homo sapiens, UniProt P04439, A269V/D185E/E176V/E277Q/E87N/F33Y/G231S/I121M/I166T/I218V/L180W/L300P/L318F/N151K/P208A/P217A/Q86R/R169H/T345S); conditions: duplicated experiments, positive binder >40%
[9] = molecular target: HLA-A*30:01 (Homo sapiens, UniProt P04439, D140H/D185E/E176W/F33S/G80R/H175R/K168Q/R138E/R41S); conditions: duplicated experiments, positive binder >40%
[10] = molecular target: T3, HLA-B*58:01 (Homo sapiens, UniProt P01889, A329T/C349S/D201E/D98Y/E176V/E187L/E204Q/E69T/G107R/I218V/I90N/K202T/L105A/L119I/N104I/N87E/Q89R/Q94S/R106L/R155S/R180L/R86G/S101N/S121R/S35A/S48A/T118I/V127L/V306I/V36M/Y140S/Y91M); conditions: duplicated experiments, positive binder >40%
[11] = molecular target: HLA-B*07:02 (Homo sapiens, UniProt P01889); conditions: percent relative the binding of positive control peptide […]; duplicated experiments; positive binder >40%
[12] = molecular target: HLA-C*07:01 (Homo sapiens, UniProt P10321, K90N/S123Y); conditions: duplicated experiments, positive binder >40%
[13] = molecular target: T3, HLA-B*58:01; conditions: time points 0-8 h
[14] = molecular target: T3, HLA-B*58:01
[15] = percent relative the binding of positive control peptide […]
[16] = percent relative the binding of positive control peptide KIQNFRVYY
[17] = percent relative the binding of positive control peptide FLPSDFFPSV, plate-bound monomer 0.5 µg/ml, duplicated experiments, positive binder >40%
[18] = percent relative the binding of positive control peptide KTGGPIYKR
[19] = percent relative the binding of positive control peptide KTKDIVNGL
[20] = percent relative the binding of positive control peptide IAMESIVIW
[21] = percent relative the binding of positive control peptide RYLKDQQLL
[22] = peptide titrated 10−4 to 10−9 M
[23] = percent relative the binding of positive control peptide KYFDEHYEY
[24] = percent relative the binding of positive control peptide […], plate-bound monomer 0.5 µg/ml, duplicated experiments, positive binder >40%

Substance	Bind A*30:02 [1, 15]	Bind A*24:02 [2, 15]	Aff A*24:02 (ED50) [3]	O-rate A*24:02 (t1/2) [4]	Bind B*07:02 [11]	Bind A*02:01 [7, 24]	Bind A*68:01 [8, 15]	Bind A*30:01 [9, 15]	Bind B*58:01 [10, 15]	Bind C*07:01 [12, 15]	also measured
MYNYPTMLD [Rv0288_5–13m3]	0%	76%	2e-08 M	30 min							
MYNYPAMLD [Rv0288_5–13m2]	59%	60%	3e-08 M	24 min							O-rate A*30:02 (t1/2) [5]: 42 min; Aff A*30:02 (ED50) [6]: 2e-06 M
AYQGVQQKW [Rv3875_50–58]				24 min	10%						Bind A*30:02 [1, 16]: 33%; Bind A*02:01 [7, 17]: 0%; Bind A*68:01 [8, 18]: 6%; Bind A*30:01 [9, 19]: 0%; Bind B*58:01 [10, 20]: 35%; Bind A*24:02 [2, 21]: 60%; Aff A*24:02 (ED50) [3, 22]: 1e-08 M; Bind C*07:01 [12, 23]: 0%
YWGAQLNAM	63%	113%	8e-09 M	30 min	12%	11%	16%	0%	0%	0%	
GYAGTLQNL [Rv0288_20–28m1]		68%	1e-07 M	18 min							
GWDINTPAF	0%	146%	1E -07 M	66 min	22%	0%	5%	11%	0%	10%	
QWLSANRAV	120%	110%	2e-06 M	24 min	25%	21%	13%	39%	0%	11%	O-rate A*30:02 (t1/2) [5]: 72 min; Aff A*30:02 (ED50) [6]: 7E -08 M
SGSEAYQGV [Rv3875_46–54]				30 min	9%						Bind A*30:02 [1, 16]: 0%; Bind A*02:01 [7, 17]: 22%; Bind A*68:01 [8, 18]: 0%; Bind A*30:01 [9, 19]: 0%; Bind B*58:01 [10, 20]: 2%; Bind A*24:02 [2, 21]: 54%; Aff A*24:02 (ED50) [3, 22]: 9e-09 M; Bind C*07:01 [12, 23]: 24%
SMAGSSAMI	45%	52%	2E -07 M	24 min	14%		0%	0%	95%	0%	O-rate B*58:01 (t1/2) [13]: 96 min; Bind A*02:01 [7]: 81; O-rate A*30:02 (t1/2) [5]: 78 min; Aff B*58:01 (ED50) [14]: 2E -07 M; Aff A*30:02 (ED50) [6]: 9e-08 M
KAGCQTYKW	45%	140%	7E -08 M	114 min	9%	22%	25%	13%	193%	31%	O-rate B*58:01 (t1/2) [13]: 480 min; Aff B*58:01 (ED50) [14]: 3E -08 M
TYKW ETFLT	13%	118%	2e-06 M	30 min	3%	36%	4%	0%	0%	0%	
MYNYPTMLG [Rv0288_5–13m1]	23%	47%	2e-07 M	30 min							
